According to US6806230B1, “Pyrimidine derivatives and herbicides containing them” (Kumiai Chemical Industry Co., Ltd., priority 1999, dated 2004):

What was measured:
Type in all cases: in vivo
[1] = tested on: barnyard grass (Ec); assay: Test Example 3: herbicidal effects by foliage treatment in upland field; design: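 0-5 growth inhibition grade; 5 = over 90%; 4 = 70-90%; 3 = 50-70%; 2 = 30-50%; 1 = 10-30%; 0 = under 10%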; conditions: dose 100 g active ingredient per 10 ares, examined on the 14th day after treatment
Procedure: In a 80 cm^2 plastic pot, upland soil was filled, and seeds of barnyard grass (Ec) and green foxtail (Se) were sown and cultured in a green house for 2 weeks. Then, a wettable powder prepared in accordance with Formulation Example 1 was diluted with water and applied to the entire foliage from above the plants by means of a small size spray at a rate of 100 l per 10 ares so that the dose of the active ingredient would be 100 g per 10 ares. Thereafter, cultivation was carried out in a green house, and on the 14th day after the treatment, the herbicidal effects were examined in accordance with the standards of Table 44.

[2] = tested on: barnyard grass (Eo); assay: Test Example 1: herbicidal effects by flooded paddy field treatment; design: herbicidal effects, Eo (barnyard grass):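 0-5 growth inhibition grade; 5 = over 90%; 4 = 70-90%; 3 = 50-70%; 2 = 30-50%; 1 = 10-30%; 0 = under 10%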; conditions: dose 100 g active ingredient per 10 ares, examined on the 21st day after treatment, standards of Table 44
How it was run: (§1)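 Herbicidal effect scored 21 days post-treatment after greenhouse cultivation. Treatment was applied dropwise to the water surface, one day after sowing, as a diluted wettable powder (100 g a.i./10 ares). Pots held puddled paddy soil under 3 cm water.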

[3] = tested on: barnyard grass (Ec); assay: Test Example 2: herbicidal effects by upland soil treatment; design: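 0-5 growth inhibition grade; 5 = over 90%; 4 = 70-90%; 3 = 50-70%; 2 = 30-50%; 1 = 10-30%; 0 = under 10%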; conditions: dose 100 g active ingredient per 10 ares, examined on the 21st day after treatment
How it was run: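 Pre-emergence test: barnyard grass and green foxtail sown in upland soil, then soil surface sprayed with wettable-powder formulation at 100 g active ingredient per 10 ares (100 l per 10 ares). Grown in greenhouse; herbicidal effect scored on a rating scale 21 days after treatment.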

[4] = tested on: monochoria (Mo); assay: Test Example 1: herbicidal effects by flooded paddy field treatment; design: herbicidal effects, Mo (monochoria):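 0-5 growth inhibition grade; 5 = over 90%; 4 = 70-90%; 3 = 50-70%; 2 = 30-50%; 1 = 10-30%; 0 = under 10%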; conditions: dose 100 g active ingredient per 10 ares, examined on the 21st day after treatment, standards of Table 44
How it was run: as §1

CC(C(=O)N(C)C(c1cncnc1C(F)(F)F)C(C)C)c1ccc(Br)s1 (mixture of isomers) [2-61]
Ec (herbicidal effects, index) [1]: 4
herbicidal effects, Eo (barnyard grass) [2]: 5
Ec (herbicidal effects, index) [3]: 5
herbicidal effects, Mo (monochoria) [4]: 5

CC(C(=O)N(C)C(c1cncnc1C(F)(F)F)C(C)C)c1cccs1 (mixture of isomers) [2-62]
Ec (herbicidal effects, index) [1]: 4
herbicidal effects, Eo (barnyard grass) [2]: 5
Ec (herbicidal effects, index) [3]: 5
herbicidal effects, Mo (monochoria) [4]: 5

CCC(C)C(c1cncnc1C(F)(F)F)N(C)C(=O)Cc1cccc(F)c1 (mixture of isomers) [Compound 1-267]
Ec (herbicidal effects, index) [1]: 4
herbicidal effects, Eo (barnyard grass) [2]: 5
Ec (herbicidal effects, index) [3]: 5
herbicidal effects, Mo (monochoria) [4]: 5

CC(C)CC(c1cncnc1C(F)(F)F)N(C)C(=O)Cc1ccccc1 (racemic) [1-330]
Ec (herbicidal effects, index) [1]: 4
herbicidal effects, Eo (barnyard grass) [2]: 5
Ec (herbicidal effects, index) [3]: 5
herbicidal effects, Mo (monochoria) [4]: 5

CC(C)CC(c1cncnc1C(F)(F)F)N(C)C(=O)Cc1ccc(F)cc1 (racemic) [1-331]
Ec (herbicidal effects, index) [1]: 4
herbicidal effects, Eo (barnyard grass) [2]: 5
Ec (herbicidal effects, index) [3]: 5
herbicidal effects, Mo (monochoria) [4]: 5

COc1ncncc1C(C(C)C)N(C)C(=O)Cc1ccc(F)cc1 (racemic) [1-402]
Ec (herbicidal effects, index) [1]: 5
herbicidal effects, Eo (barnyard grass) [2]: 5
Ec (herbicidal effects, index) [3]: 5
herbicidal effects, Mo (monochoria) [4]: 5

COc1ncncc1C(C(C)C)N(C)C(=O)Cc1ccc(Cl)cc1 (racemic) [1-403]
Ec (herbicidal effects, index) [1]: 4
herbicidal effects, Eo (barnyard grass) [2]: 5
Ec (herbicidal effects, index) [3]: 5
herbicidal effects, Mo (monochoria) [4]: 5

CON(C(=O)Cc1ccc(Cl)cc1)C(c1cncnc1C(F)(F)F)C(C)C (racemic) [1-407]
Ec (herbicidal effects, index) [1]: 4
herbicidal effects, Eo (barnyard grass) [2]: 5
Ec (herbicidal effects, index) [3]: 5
herbicidal effects, Mo (monochoria) [4]: 5

CN(C(=O)Cc1ccc(F)cc1)C(c1cncnc1C(F)(F)F)C1(C)CC1 (racemic) [1-410]
Ec (herbicidal effects, index) [1]: 4
herbicidal effects, Eo (barnyard grass) [2]: 5
Ec (herbicidal effects, index) [3]: 5
herbicidal effects, Mo (monochoria) [4]: 5

CN(C(=O)Cc1ccc(Cl)cc1)C(c1cncnc1C(F)(F)F)C1(C)CC1 (racemic) [1-411]
Ec (herbicidal effects, index) [1]: 4
herbicidal effects, Eo (barnyard grass) [2]: 5
Ec (herbicidal effects, index) [3]: 5
herbicidal effects, Mo (monochoria) [4]: 5

CC(C)C(c1cncnc1C(F)(F)F)N(C)C(=O)N(C)c1ccc(F)cc1 (racemic) [1-426]
Ec (herbicidal effects, index) [1]: 4
herbicidal effects, Eo (barnyard grass) [2]: 5
Ec (herbicidal effects, index) [3]: 5
herbicidal effects, Mo (monochoria) [4]: 5

CC(C)C(c1cncnc1C(F)(F)F)N(C)C(=O)N(C)c1ccc(Cl)cc1 (racemic) [1-427]
Ec (herbicidal effects, index) [1]: 4
herbicidal effects, Eo (barnyard grass) [2]: 5
Ec (herbicidal effects, index) [3]: 5
herbicidal effects, Mo (monochoria) [4]: 5

Cc1ccc(N(C)C(=O)N(C)C(c2cncnc2C(F)(F)F)C(C)C)cc1 (racemic) [1-428]
Ec (herbicidal effects, index) [1]: 4
herbicidal effects, Eo (barnyard grass) [2]: 5
Ec (herbicidal effects, index) [3]: 5
herbicidal effects, Mo (monochoria) [4]: 5

CC(C)c1ncncc1C(C(C)C)N(C)C(=O)N(C)c1ccc(Cl)cc1 (racemic) [1-430]
Ec (herbicidal effects, index) [1]: 4
herbicidal effects, Eo (barnyard grass) [2]: 5
Ec (herbicidal effects, index) [3]: 5
herbicidal effects, Mo (monochoria) [4]: 5

Cc1ccc(N(C)C(=O)N(C)C(c2cncnc2C(C)C)C(C)C)cc1 (racemic) [1-431]
Ec (herbicidal effects, index) [1]: 4
herbicidal effects, Eo (barnyard grass) [2]: 5
Ec (herbicidal effects, index) [3]: 5
herbicidal effects, Mo (monochoria) [4]: 5

CCc1ncncc1C(C(C)C)N(C)C(=O)Cc1ccccc1 (racemic) [1-432]
Ec (herbicidal effects, index) [1]: 5
herbicidal effects, Eo (barnyard grass) [2]: 5
Ec (herbicidal effects, index) [3]: 5
herbicidal effects, Mo (monochoria) [4]: 5

CCc1ncncc1C(C(C)C)N(C)C(=O)Cc1ccc(Cl)cc1 (racemic) [1-434]
Ec (herbicidal effects, index) [1]: 4
herbicidal effects, Eo (barnyard grass) [2]: 5
Ec (herbicidal effects, index) [3]: 5
herbicidal effects, Mo (monochoria) [4]: 5

CCc1ncncc1C(C(C)C)N(C)C(=O)Cc1ccc(C)cc1 (racemic) [1-435]
Ec (herbicidal effects, index) [1]: 4
herbicidal effects, Eo (barnyard grass) [2]: 5
Ec (herbicidal effects, index) [3]: 5
herbicidal effects, Mo (monochoria) [4]: 5

CCC(c1cncnc1C(C)C)N(C)C(=O)Cc1ccc(F)cc1 (racemic) [1-437]
Ec (herbicidal effects, index) [1]: 4
herbicidal effects, Eo (barnyard grass) [2]: 5
Ec (herbicidal effects, index) [3]: 5
herbicidal effects, Mo (monochoria) [4]: 5

CCCc1ncncc1C(C(C)C)N(C)C(=O)Cc1ccccc1 (racemic) [1-445]
Ec (herbicidal effects, index) [1]: 5
herbicidal effects, Eo (barnyard grass) [2]: 5
Ec (herbicidal effects, index) [3]: 5
herbicidal effects, Mo (monochoria) [4]: 5

CCCc1ncncc1C(C(C)C)N(C)C(=O)Cc1ccc(F)cc1 (racemic) [1-446]
Ec (herbicidal effects, index) [1]: 5
herbicidal effects, Eo (barnyard grass) [2]: 5
Ec (herbicidal effects, index) [3]: 5
herbicidal effects, Mo (monochoria) [4]: 5

CCCc1ncncc1C(C(C)C)N(C)C(=O)Cc1ccc(Cl)cc1 (racemic) [1-447]
Ec (herbicidal effects, index) [1]: 5
herbicidal effects, Eo (barnyard grass) [2]: 5
Ec (herbicidal effects, index) [3]: 5
herbicidal effects, Mo (monochoria) [4]: 5

CCCC(c1cncnc1C(C)C)N(C)C(=O)Cc1ccccc1 (racemic) [1-449]
Ec (herbicidal effects, index) [1]: 4
herbicidal effects, Eo (barnyard grass) [2]: 5
Ec (herbicidal effects, index) [3]: 5
herbicidal effects, Mo (monochoria) [4]: 5

CCCC(c1cncnc1C(C)C)N(C)C(=O)Cc1ccc(F)cc1 (racemic) [1-450]
Ec (herbicidal effects, index) [1]: 4
herbicidal effects, Eo (barnyard grass) [2]: 5
Ec (herbicidal effects, index) [3]: 5
herbicidal effects, Mo (monochoria) [4]: 5

CCCC(c1cncnc1C(C)C)N(C)C(=O)Cc1ccc(Cl)cc1 (racemic) [1-451]
Ec (herbicidal effects, index) [1]: 4
herbicidal effects, Eo (barnyard grass) [2]: 5
Ec (herbicidal effects, index) [3]: 5
herbicidal effects, Mo (monochoria) [4]: 5

CON=CC(c1cncnc1C(C)C)N(C)C(=O)Cc1ccc(F)cc1 (racemic) [1-463]
Ec (herbicidal effects, index) [1]: 4
herbicidal effects, Eo (barnyard grass) [2]: 5
Ec (herbicidal effects, index) [3]: 4
herbicidal effects, Mo (monochoria) [4]: 5

CON=CC(c1cncnc1C(C)C)N(C)C(=O)Cc1ccc(Cl)cc1 (racemic) [1-464]
Ec (herbicidal effects, index) [1]: 4
herbicidal effects, Eo (barnyard grass) [2]: 5
Ec (herbicidal effects, index) [3]: 5
herbicidal effects, Mo (monochoria) [4]: 5

CC(C)C(c1cncnc1C(F)(F)F)N(CC#N)C(=O)Cc1ccc(Cl)cc1 (racemic) [1-482]
Ec (herbicidal effects, index) [1]: 5
herbicidal effects, Eo (barnyard grass) [2]: 5
Ec (herbicidal effects, index) [3]: 5
herbicidal effects, Mo (monochoria) [4]: 5

COc1ccccc1C(c1cncnc1C(F)(F)F)N(C)C(=O)Cc1ccccc1 (racemic) [1-488]
Ec (herbicidal effects, index) [1]: 5
herbicidal effects, Eo (barnyard grass) [2]: 5
Ec (herbicidal effects, index) [3]: 5
herbicidal effects, Mo (monochoria) [4]: 5

CON=Cc1ncncc1C(C(C)C)N(C)C(=O)Cc1ccc(F)cc1 (racemic) [1-497]
Ec (herbicidal effects, index) [1]: 4
herbicidal effects, Eo (barnyard grass) [2]: 5
Ec (herbicidal effects, index) [3]: 5
herbicidal effects, Mo (monochoria) [4]: 5
